Measured values as given in US12077503B2, “Substituted cyclic amides and their use as herbicides” (FMC CORPORATION, priority 2015, dated 2024).

Key:
Test in all cases: Test C postemergence
Type in all cases: in vivo
Details in all cases: scale 0 to 100, 0 no effect, 100 complete control
soybean (Glycine max) = system: soybean (Glycine max)
From the text: (§1) Seeds of plant species selected from blackgrass (Alopecurus myosuroides), ryegrass, Italian (Italian ryegrass, Lolium multiflorum), wheat (winter wheat, Triticum aestivum), Galium (catchweed bedstraw, Galium aparine), corn (Zea mays), crabgrass, large (large crabgrass, Digitaria sanguinalis), foxtail, giant (giant foxtail, Setaria faberii), johnsongrass (Sorghum halepense), lambsquarters (Chenopodium album), morningglory (Ipomoea coccinea), nutsedge, yellow (yellow nutsedge, Cyperus esculentus), pigweed (Amaranthus retroflexus), ragweed (common ragweed, Ambrosia elatior), soybean (Glycine max), barnyardgrass (Echinochloa crus-galli), oilseed rape (Brassica napus), waterhemp (common waterhemp, Amaranthus rudis) and velvetleaf (Abutilon theophrasti) were planted into a blend of loam soil and sand and treated preemergence with test chemicals formulated in a non-phytotoxic solvent mixture which included a surfactant.
(§2) At the same time, plants selected from these crop and weed species and also Kochia (Kochia scoparia), oat, wild (wild oat, Avena fatua), and chickweed (common chickweed, Stellaria media) were planted in pots containing Sunshine Redi-Earth® planting medium comprising spaghnum peat moss, vermiculite, starter nutrients and dolomitic limestone and treated with postemergence applications of test chemicals formulated in the same manner. Plants ranged in height from 2 to 18 cm (1- to 4-leaf stage) for postemergence treatments. Treated plants and controls were maintained in a greenhouse for 13 to 15 d, after which time all species were compared to controls and visually evaluated. Plant response ratings, summarized in Table C, are based on a scale of 0 to 100 where 0 is no effect and 100 is complete control. A dash (-) response means no test result.

[1] = system: barnyardgrass (Echinochloa crus-galli)
From the text: as §1, §2

[2] = system: pigweed (Amaranthus retroflexus)
From the text: as §1, §2

[3] = system: wheat (winter wheat, Triticum aestivum)
From the text: as §1, §2

[4] = system: foxtail, giant (giant foxtail, Setaria faberii)
From the text: as §1, §2

[5] = system: oilseed rape (Brassica napus)
From the text: as §1, §2

[6] = system: nutsedge, yellow (yellow nutsedge, Cyperus esculentus)
From the text: as §1, §2

[7] = system: ragweed (common ragweed, Ambrosia elatior)
From the text: as §1, §2

corn (Zea mays) = system: corn (Zea mays)
From the text: as §1, §2

[8] = system: Galium (catchweed bedstraw, Galium aparine)
From the text: as §1, §2

[9] = system: velvetleaf (Abutilon theophrasti)
From the text: as §1, §2

Kochia (Kochia scoparia) = system: Kochia (Kochia scoparia)
From the text: as §1, §2

[10] = system: crabgrass, large (large crabgrass, Digitaria sanguinalis)
From the text: as §1, §2

[11] = system: morningglory (Ipomoea coccinea)
From the text: as §1, §2

[12] = system: chickweed (common chickweed, Stellaria media)
From the text: as §1, §2

[13] = system: lambsquarters (Chenopodium album)
From the text: as §1, §2

[14] = system: blackgrass (Alopecurus myosuroides)
From the text: as §1, §2

[15] = system: ryegrass, Italian (Italian ryegrass, Lolium multiflorum)
From the text: as §1, §2

[16] = system: waterhemp (common waterhemp, Amaranthus rudis)
From the text: as §1, §2

[17] = system: johnsongrass (Sorghum halepense)
From the text: as §1, §2

[18] = system: oat, wild (wild oat, Avena fatua)
From the text: as §1, §2

CN1CC(c2ccc(F)c(F)c2)C(C(=O)Nc2ccccc2S(C)(=O)=O)C1=O (stereo not drawn) [Compound 640]
75: Plant response rating, Kochia (Kochia (Kochia scoparia); 250 g ai/ha)
10: Plant response rating, Soybean (soybean (Glycine max); 62 g ai/ha) | Plant response rating, Soybean (soybean (Glycine max); 125 g ai/ha) | Plant response rating, Barnyardgrass ([1]; 125 g ai/ha) | Plant response rating, Barnyardgrass ([1]; 250 g ai/ha) | Plant response rating, Pigweed ([2]; 31 g ai/ha) | Plant response rating, Foxtail, Giant ([4]; 125 g ai/ha) | Plant response rating, Nutsedge, Yellow ([6]; 250 g ai/ha) | Plant response rating, Crabgrass, Large ([10]; 125 g ai/ha) | Plant response rating, Waterhemp ([16]; 125 g ai/ha)
60: Plant response rating, Oilseed Rape ([5]; 250 g ai/ha) | Plant response rating, Galium ([8]; 125 g ai/ha) | Plant response rating, Chickweed ([12]; 125 g ai/ha)
50: Plant response rating, Oilseed Rape ([5]; 125 g ai/ha) | Plant response rating, Galium ([8]; 31 g ai/ha)
0: Plant response rating, Barnyardgrass ([1]; 31 g ai/ha) | Plant response rating, Barnyardgrass ([1]; 62 g ai/ha) | Plant response rating, Wheat ([3]; 31 g ai/ha) | Plant response rating, Wheat ([3]; 62 g ai/ha) | Plant response rating, Wheat ([3]; 125 g ai/ha) | Plant response rating, Wheat ([3]; 250 g ai/ha) | Plant response rating, Foxtail, Giant ([4]; 31 g ai/ha) | Plant response rating, Foxtail, Giant ([4]; 62 g ai/ha) | Plant response rating, Nutsedge, Yellow ([6]; 31 g ai/ha) | Plant response rating, Nutsedge, Yellow ([6]; 62 g ai/ha) | Plant response rating, Nutsedge, Yellow ([6]; 125 g ai/ha) | Plant response rating, Ragweed ([7]; 31 g ai/ha) | Plant response rating, Corn (corn (Zea mays); 31 g ai/ha) | Plant response rating, Corn (corn (Zea mays); 62 g ai/ha) | Plant response rating, Corn (corn (Zea mays); 125 g ai/ha) | Plant response rating, Corn (corn (Zea mays); 250 g ai/ha) | Plant response rating, Crabgrass, Large ([10]; 31 g ai/ha) | Plant response rating, Crabgrass, Large ([10]; 62 g ai/ha) | Plant response rating, Chickweed ([12]; 62 g ai/ha) | Plant response rating, Blackgrass ([14]; 31 g ai/ha) | Plant response rating, Blackgrass ([14]; 62 g ai/ha) | Plant response rating, Blackgrass ([14]; 125 g ai/ha) | Plant response rating, Blackgrass ([14]; 250 g ai/ha) | Plant response rating, Ryegrass, Italian ([15]; 31 g ai/ha) | Plant response rating, Ryegrass, Italian ([15]; 62 g ai/ha) | Plant response rating, Ryegrass, Italian ([15]; 125 g ai/ha) | Plant response rating, Johnsongrass ([17]; 31 g ai/ha) | Plant response rating, Johnsongrass ([17]; 62 g ai/ha) | Plant response rating, Johnsongrass ([17]; 125 g ai/ha) | Plant response rating, Johnsongrass ([17]; 250 g ai/ha) | Plant response rating, Oat, Wild ([18]; 31 g ai/ha) | Plant response rating, Oat, Wild ([18]; 62 g ai/ha) | Plant response rating, Oat, Wild ([18]; 125 g ai/ha)
20: Plant response rating, Oilseed Rape ([5]; 31 g ai/ha) | Plant response rating, Kochia (Kochia (Kochia scoparia); 31 g ai/ha) | Plant response rating, Lambsquarters ([13]; 62 g ai/ha) | Plant response rating, Waterhemp ([16]; 62 g ai/ha)
15: Plant response rating, Oilseed Rape ([5]; 62 g ai/ha)
35: Plant response rating, Pigweed ([2]; 62 g ai/ha) | Plant response rating, Pigweed ([2]; 125 g ai/ha) | Plant response rating, Crabgrass, Large ([10]; 250 g ai/ha) | Plant response rating, Morningglory ([11]; 31 g ai/ha) | Plant response rating, Chickweed ([12]; 250 g ai/ha)
30: Plant response rating, Ragweed ([7]; 125 g ai/ha) | Plant response rating, Velvetleaf ([9]; 250 g ai/ha) | Plant response rating, Kochia (Kochia (Kochia scoparia); 62 g ai/ha) | Plant response rating, Kochia (Kochia (Kochia scoparia); 125 g ai/ha) | Plant response rating, Lambsquarters ([13]; 31 g ai/ha) | Plant response rating, Waterhemp ([16]; 250 g ai/ha)
25: Plant response rating, Ragweed ([7]; 62 g ai/ha) | Plant response rating, Velvetleaf ([9]; 125 g ai/ha) | Plant response rating, Chickweed ([12]; 31 g ai/ha)
40: Plant response rating, Morningglory ([11]; 62 g ai/ha) | Plant response rating, Morningglory ([11]; 250 g ai/ha) | Plant response rating, Lambsquarters ([13]; 250 g ai/ha)
5: Plant response rating, Soybean (soybean (Glycine max); 250 g ai/ha) | Plant response rating, Velvetleaf ([9]; 31 g ai/ha) | Plant response rating, Ryegrass, Italian ([15]; 250 g ai/ha) | Plant response rating, Waterhemp ([16]; 31 g ai/ha) | Plant response rating, Oat, Wild ([18]; 250 g ai/ha)
70: Plant response rating, Velvetleaf ([9]; 62 g ai/ha) | Plant response rating, Lambsquarters ([13]; 125 g ai/ha)
65: Plant response rating, Soybean (soybean (Glycine max); 31 g ai/ha) | Plant response rating, Foxtail, Giant ([4]; 250 g ai/ha) | Plant response rating, Galium ([8]; 250 g ai/ha)
55: Plant response rating, Pigweed ([2]; 250 g ai/ha) | Plant response rating, Ragweed ([7]; 250 g ai/ha) | Plant response rating, Galium ([8]; 62 g ai/ha) | Plant response rating, Morningglory ([11]; 125 g ai/ha)
